Assay [1] has as its system HCT-116 (human colon) cells. Put plainly: Cell-Titer Glo Cell Growth Inhibition Assay. The format is cell-based. The note with it: HCT-116 cells, 72 h incubation, CellTiter-Glo, read-out: HCT116 IC50. As for the experimental part: A549-L (human lung), Colo 205 (human colon), HCT-116 (human colon), HT29 (human colon), MX-1 (human breast), SKOV3 (human ovary) and P388 (murine leukemia) cell lines were cultured in RPM11640 containing 10% fetal bovine serum at 37° C. in a 5% CO2 incubator. Cell lines were split into T75 flasks (Falcon #353136) two to three days prior to assay set up at density which yields approximately 70-80% confluency at time of harvest for assay. Cells were harvested using 0.25% trypsin with EDTA (Glibco/Invitrogen #25200-056), Cell counts were performed on cell suspensions using Trypan Blue exclusion staining, cells were then plated in 105 µL of culture media per well at the following densities in 96 well Costar #3916 black flat bottom plates: A549-L 500 cells/well, Colo205 500 cells/well, HCT-116 500 cells/well, HT29 500 cells/well, MX-1 500 cells/well, SKOV3 500 cells/well and P388 250 cells/well. All plates were placed at 5% CO2 37° C. overnight and then test compounds were added the following day. One plate of each cell type was treated with CellTiter-Glo (Promega #G7573) for a day 0 proliferation measurement and read as described below. The test compounds were prepared in clear U bottom polypropylene 96 well plates (Falcon #35-1190 with consecutive two fold dilutions. 9 uL of these dilutions was added into each well of the cell plates. The final concentration of DMSO in all wells was 0.15%. Cells were incubated at 37° C., 5% CO2 for 72 h. Following 72 h of incubation with compounds each plate was developed and read. CellTiter-Glo reagent was added to assay plates using a volume equivalent to the cell culture volume in the wells. Plates were shaken for approximately 2 min and incubated at rt for approximately 15 min and the chemiluminescent signal was read on the Victor V or Envison 2100 reader. […] Concentration of compound that inhibited 50% of cell growth (IC50) was analyzed by 4 or 6 parameter fit of data using XLfit, value of no cell addition was substracted from all samples for background.
A general note: In ATP-based viability assays light output follows the ATP content of the culture.

Assay [2] addresses T1, PLK1 kinase domain (Homo sapiens, UniProt P53350).
T1 construct: made in house; host or cells: baculovirus infected T. ni cells
In words: Assay for Inhibition of PLK1 (SPA, 33P-ATP). The format is biochemical. The note with it: 2 nM PLK1 kinase domain, 1 μM ATP, 22° C.; read-out: PLK1 pIC50 (converted). As for the experimental part: A. Preparation of 6× N-Terminal His-Tagged PLK Kinase Domain
All procedures were performed at 4° C. Cells were lysed in 50 mM HEPES, 200 mM NaCl, 50 mM imidazole, 5% glycerol; pH 7.5. The homogenate was centrifuged at 14K rpm in a SLA-1500 rotor for 1 hr and the supernatant filtered through a 1.2 micron filter. The supernatant was loaded onto a Nickel chelating Sepharose (Amersham Pharmacia) column and washed with lysis buffer. Protein was eluted using 20%, 30% and 100% buffer B steps where buffer B was 50 mM HEPES, 200 mM NaCl, 300 mM imidazole, 5% glycerol; pH 7.5. Fractions containing PLK were determined by SDS-PAGE. Fractions containing PLK were diluted five-fold with 50 mM HEPES, 1 mM DTT, 5% glycerol; pH 7.5, then loaded on an SP Sepharose (Amersham Pharmacia) column. After washing the column with 50 mM HEPES, 1 mM DTT, 5% glycerol; pH 7.5, PLK was step eluted with 50 mM HEPES, 1 mM DTT, 500 mM NaCl; 5% glycerol; pH 7.5. PLK was concentrated using a 10 kDa molecular weight cutoff membrane and then loaded onto a Superdex 200 gel filtration (Amersham Pharmacia) column equilibrated in 25 mM HEPES, 1 mM DTT, 500 mM NaCl, 5% glycerol; pH 7.5. Fractions containing PLK were determined by SDS-PAGE. PLK was pooled, aliquoted and stored at −80° C. Samples were quality controlled using mass spectrometry, N-terminal sequencing and amino acid analysis.
B. Enzyme Activity +/− Inhibitors was Determined as Follows:
All measurements were obtained under conditions where signal production increased linearly with time and enzyme. Test compounds were added to white 384-well assay plates (0.1 μL for 10 μL and some 20 μL assays, 1 μL for some 20 μL assays) at variable known concentrations in 100% DMSO. DMSO (1-5% final, as appropriate) and EDTA (65 mM in reaction) were used as controls.
Reaction Mix (10 or 20 μL) was quickly added to each well immediately following addition of enzyme via automated liquid handlers and incubated 1-1.5 h at 22° C. The 20 μL enzymatic reactions were stopped with 50 μL of stop mix (50 mM EDTA, 4.0 mg/mL Streptavidin SPA beads in Standard Dulbecco's PBS (without Mg^2+ and Ca^2+), 50 μM ATP) per well. The 10 μL reactions were stopped with 10 μL of stop mix (50 mM EDTA, 3.0 mg/mL Streptavidin-coupled SPA Imaging Beads (“LeadSeeker”) in Standard Dulbecco's PBS (without Mg^2+ and Ca^2+), 50 μM ATP) per well. Plates were sealed with clear plastic seals, spun at 500×g for 1 min or settled overnight, and counted in Packard TopCount for 30 seconds/well (regular SPA) or imaged using a Viewlux imager (LeadSeeker SPA). Signal above background (EDTA controls) was converted to percent inhibition relative to that obtained in control (DMSO-only) wells.

T1 sequence (P53350 21-346): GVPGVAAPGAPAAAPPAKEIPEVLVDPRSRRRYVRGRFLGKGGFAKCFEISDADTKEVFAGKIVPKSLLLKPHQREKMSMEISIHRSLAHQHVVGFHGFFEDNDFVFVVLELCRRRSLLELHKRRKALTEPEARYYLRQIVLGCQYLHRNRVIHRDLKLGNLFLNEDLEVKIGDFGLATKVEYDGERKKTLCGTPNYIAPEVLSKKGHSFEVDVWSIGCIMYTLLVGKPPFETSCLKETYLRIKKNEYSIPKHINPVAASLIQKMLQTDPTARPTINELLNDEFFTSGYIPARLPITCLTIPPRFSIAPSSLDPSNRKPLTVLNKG

On to `C[C@@H](Oc1cc(-n2cnc3cc(-c4ccnc(NCCN(C)C)n4)ccc32)sc1C(N)=O)c1ccccc1C(F)(F)F` [Example 16, 5-[5-(2-{[2-(Dimethylamino)ethyl]amino}pyrimidin-4-yl)-1H-benzimidazol-1-yl]-3-({(1R)-1-[2-(trifluoromethyl)phenyl]ethyl}oxy)thiophene-2-carboxamide], for which the IC50 in assay [1] is under 500 nM; in assay [2], under 100 nM.
As to `C[C@@H](Oc1cc(-n2cnc3cc(-c4ccnc(NCCCN5CCN(C)CC5)n4)ccc32)sc1C(N)=O)c1ccccc1Cl` [Example 17, 3-{[(1R)-1-(2-chlorophenyl)ethyl]oxy}-5-[5-(2-{[3-(4-methyl-1-piperazinyl)propyl]amino}-4-pyrimidinyl)-1H-benzimidazol-1-yl]-2-thiophenecarboxamide], the IC50 in assay [1] is under 500 nM; in assay [2] it was under 100 nM.
In the same order, the values of `C[C@@H](Oc1cc(-n2cnc3cc(-c4cnc(NCCCN(C)C)nc4)ccc32)sc1C(N)=O)c1ccccc1Cl` [Example 18, 3-{[(1R)-1-(2-Chlorophenyl)ethyl]oxy}-5-[5-(2-{[3-(dimethylamino)propyl]amino}-5-pyrimidinyl)-1H-benzimidazol-1-yl]-2-thiophenecarboxamide] are under 500 nM and under 100 nM.
In the same order, the values of `C[C@@H](Oc1cc(-n2cnc3cc(-c4cnc(NCCN(C)C)nc4)ccc32)sc1C(N)=O)c1ccccc1Cl` [Example 19, 3-{[(1R)-1-(2-Chlorophenyl)ethyl]oxy}-5-[5-(2-{[2-(dimethylamino)ethyl]amino}-5-pyrimidinyl)-1H-benzimidazol-1-yl]-2-thiophenecarboxamide] are under 500 nM and under 100 nM.
In the same order, the values of `C[C@@H](Oc1cc(-n2cnc3cc(-c4cnc(NCCCN5CCN(C)CC5)nc4)ccc32)sc1C(N)=O)c1ccccc1Cl` [Example 20, 3-{[(1R)-1-(2-Chlorophenyl)ethyl]oxy}-5-[5-(2-{[3-(4-methyl-1-piperazinyl)propyl]amino}-5-pyrimidinyl)-1H-benzimidazol-1-yl]-2-thiophenecarboxamide] are under 500 nM and under 100 nM.
On to `C[C@@H](Oc1cc(-n2cnc3cc(-c4cnc(N(C)CCN(C)C)nc4)ccc32)sc1C(N)=O)c1ccccc1Cl` [Example 21, 3-{[(1R)-1-(2-chlorophenyl)ethyl]oxy}-5-(5-{2-[[2-(dimethylamino)ethyl](methyl)amino]-5-pyrimidinyl}-1H-benzimidazol-1-yl)-2-thiophenecarboxamide], for which the figures for the IC50 in assay [1] and in assay [2] were under 500 nM and under 100 nM, respectively.
On to `C[C@@H](Oc1cc(-n2cnc3cc(-c4cnc(NCCN5CCOCC5)nc4)ccc32)sc1C(N)=O)c1ccccc1Cl` [Example 22, 3-{[(1R)-1-(2-chlorophenyl)ethyl]oxy}-5-[5-(2-{[2-(4-morpholinyl)ethyl]amino}-5-pyrimidinyl)-1H-benzimidazol-1-yl]-2-thiophenecarboxamide], for which the IC50 in assay [1] was under 500 nM; in assay [2] it was under 100 nM.
On to `C[C@@H](Oc1cc(-n2cnc3cc(-c4cccc(OCCN5CCCC5)c4)ccc32)sc1C(N)=O)c1ccccc1Cl` [Example 23, 3-{[(1R)-1-(2-chlorophenyl)ethyl]oxy}-5-[5-(3-{[2-(1-Pyrrolidinyl)ethyl]oxy}phenyl)-1H-benzimidazol-1-yl]-2-thiophenecarboxamide], for which the IC50 in assay [1] is under 500 nM; in assay [2] it was under 100 nM.
In the same order, the values of `C[C@@H](Oc1cc(-n2cnc3cc(-c4ccc(NC(=O)CN5CCOCC5)cc4)ccc32)sc1C(N)=O)c1ccccc1Cl` [Example 24, 3-{[(1R)-1-(2-chlorophenyl)ethyl]oxy}-5-(5-[4-[(4-morpholinylacetyl)amino]phenyl]-1H-benzimidazol-1-yl)-2-thiophenecarboxamide] are under 500 nM and under 100 nM.
In the same order, the values of `C[C@@H](Oc1cc(-n2cnc3cc(-c4ccc(NCCN(C)C)nc4)ccc32)sc1C(N)=O)c1ccccc1C(F)(F)F` [Example 25, 5-[5-(6-{[2-(dimethylamino)ethyl]amino}-3-pyridinyl)-1H-benzimidazol-1-yl]-3-({(1R)-1-[2-(trifluoromethyl)phenyl]ethyl}oxy)-2-thiophenecarboxamide] are under 500 nM and under 100 nM.
For the molecule `CNCCNc1ccc(-c2ccc3c(c2)ncn3-c2cc(O[C@H](C)c3ccccc3C(F)(F)F)c(C(N)=O)s2)cn1` [Example 26, 5-[5-(6-{[2-(methylamino)ethyl]amino}-3-pyridinyl)-1H-benzimidazol-1-yl]-3-({(1R)-1-[2-(trifluoromethyl)phenyl]ethyl}oxy)-2-thiophenecarboxamide], the values for the IC50 in assay [1] and in assay [2] were under 500 nM and under 100 nM, respectively.
`C[C@@H](Oc1cc(-n2cnc3cc(-c4ccc(N(C)CCN(C)C)nc4)ccc32)sc1C(N)=O)c1ccccc1Cl` [Example 27, 3-{[(1R)-1-(2-chlorophenyl)ethyl]oxy}-5-(5-[6-[[2-(dimethylamino)ethyl](methyl)amino]-3-pyridinyl]-1H-benzimidazol-1-yl)-2-thiophenecarboxamide]: the results for the IC50 in assay [1] and in assay [2] were under 500 nM and under 100 nM, respectively.
On to `C[C@@H](Oc1cc(-n2cnc3cc(-c4ccc(NCCO)nc4)ccc32)sc1C(N)=O)c1ccccc1Cl` [Example 28, 3-{[(1R)-1-(2-chlorophenyl)ethyl]oxy}-5-(5-[6-[(2-hydroxyethyl)amino]-3-pyridinyl]-1H-benzimidazol-1-yl)-2-thiophenecarboxamide], for which the IC50 in assay [1] is under 500 nM; in assay [2], under 100 nM.
In the case of `C[C@@H](Oc1cc(-n2cnc3cc(-c4ccc(NCCCN(C)C)nc4)ccc32)sc1C(N)=O)c1ccccc1Cl` [Example 29, 3-{[(1R)-1-(2-chlorophenyl)ethyl]oxy}-5-[5-(6-{[3-(dimethylamino)propyl]amino}-3-pyridinyl)-1H-benzimidazol-1-yl]-2-thiophenecarboxamide], the IC50 in assay [1] was under 500 nM; in assay [2] it was under 100 nM.
In the same order, the values of `C[C@@H](Oc1cc(-n2cnc3cc(-c4ccc(NCCN(C)C)nc4)ccc32)sc1C(N)=O)c1ccccc1Cl` [Example 30, 3-{[(1R)-1-(2-chlorophenyl)ethyl]oxy}-5-[5-(6-{[2-(dimethylamino)ethyl]amino}-3-pyridinyl)-1H-benzimidazol-1-yl]-2-thiophenecarboxamide] are under 500 nM and under 100 nM.

For the origin of these results see patent US20100056525A1, “5- AND 6- SUBSTITUTED BENZIMIDAZOLE THIOPHENE COMPOUNDS” (priority 2006, published 2010).
